These are literature values, as cited in US12251425B2, “Sustained-release lipid preformulation and pharmaceutical composition for sustained-release injection in form of lipid solution containing same” (IMDPHARM INC., priority 2019, dated 2025).

For the data set the following is noted: 25° C.

Take sorbitan monooleate: the viscosity result is given as “about 1000 mPa·s”.
